Test results taken from ChEMBL document CHEMBL3885861, “Open TG-GATES”.

Species: Rattus norvegicus
Test: Open TG-GATES - Regimen: Daily Repeat
Type: toxicity, organism-based, Sprague-Dawley
Parameters: regimen Daily Repeat, gender Male, age 6 weeks
Settings: in vivo, po, 300 mg/kg, route gavage, dose level High; for APTT / Bas / Eos / Fbg / Hb / Ht / Lym / MCH / MCHC / MCV / Mono / Neu / PT / Plat / RBC / Ret / WBC: tissue Blood
[1] = 72 h, tissue Kidney, time 3 day
[2] = 72 h, tissue Plasma, time 3 day

Molecule O=C(O)COc1nn(Cc2ccccc2)c2ccccc12 [BENDAZAC] has a TERMINAL_BW (72 h, time 3 day) of 223.3 g, an APTT (72 h, time 3 day) of 19 s and a Bas (72 h, time 3 day) of 0%. It also gave an Eos (72 h, time 3 day) of 0.8%, a Fbg (72 h, time 3 day) of 218 mg/dL and a Hb (72 h, time 3 day) of 14.2 g/dL. The Ht (72 h, time 3 day) was 42%, the Lym (72 h, time 3 day) was 75.2% and the MCH (72 h, time 3 day) was 21.6 pg. It also gave an MCHC (72 h, time 3 day) of 33.7%, an MCV (72 h, time 3 day) of 64.2 fL and a Mono (72 h, time 3 day) of 9.2%. It also gave a Neu (72 h, time 3 day) of 14.4%, a PT (72 h, time 3 day) of 12.3 s and a Plat (72 h, time 3 day) of 133.3 x10_4/uL. The RBC (72 h, time 3 day) was 655.2 x10_4/ul, the Ret (72 h, time 3 day) was 6.2% and the WBC (72 h, time 3 day) was 109.6 x10_2/uL. The KIDNEY_L [1] was 1 g, the KIDNEY_R [1] was 1.1 g and the KIDNEY_TOTAL [1] was 2.1 g. For the same molecule, the LIVER (72 h, tissue Liver, time 3 day) was 13.4 g, the A/G [2] was 2.3 and the ALP [2] was 1088.6 IU/L. The ALT [2] was 44.4 IU/L, the AST [2] was 75.8 IU/L and the BUN [2] was 17.4 mg/dL. For the same molecule, the CRE [2] was 0.6 mg/dL, the Ca [2] was 10.8 mg/dL and the Cl [2] was 103.6 meq/L. The DBIL [2] was 0.076 mg/dL, the GLC [2] was 192.6 mg/dL and the IP [2] was 5.8 mg/dL. The K [2] was 4.4 meq/L, the LDH [2] was 141.8 IU/L and the Na [2] was 140.4 meq/L. The PL [2] was 131 mg/dL, the RALB [2] was 3.8 g/dL and the TBIL [2] was 0.8 mg/dL. It also gave a TC [2] of 66.2 mg/dL, a TG [2] of 68.8 mg/dL and a TP [2] of 5.5 g/dL. It also gave a gamma-GTP [2] of 1.2 IU/L, a TERMINAL_BW ([…], time 7 day) of 261 g and a TERMINAL_BW ([…], time 14 day) of 307.2 g. For the same molecule, the TERMINAL_BW ([…], time 28 day) was 410 g, the APTT ([…], time 7 day) was 20.2 s and the Bas ([…], time 7 day) was 0%. The Eos ([…], time 7 day) was 0.8%, the Fbg ([…], time 7 day) was 207.6 mg/dL and the Hb ([…], time 7 day) was 13.8 g/dL. For the same molecule, the Ht ([…], time 7 day) was 40.6%, the Lym ([…], time 7 day) was 83% and the MCH ([…], time 7 day) was 21.5 pg. For the same molecule, the MCHC ([…], time 7 day) was 34%, the MCV ([…], time 7 day) was 63.3 fL and the Mono ([…], time 7 day) was 5.2%. The Neu ([…], time 7 day) was 11.4%, the PT ([…], time 7 day) was 12.6 s and the Plat ([…], time 7 day) was 132.2 x10_4/uL. It also gave an RBC ([…], time 7 day) of 641.6 x10_4/ul, a Ret ([…], time 7 day) of 6.1% and a WBC ([…], time 7 day) of 123 x10_2/uL. The APTT ([…], time 14 day) was 18.9 s, the Bas ([…], time 14 day) was 0% and the Eos ([…], time 14 day) was 0.6%. It also gave a Fbg ([…], time 14 day) of 213.6 mg/dL, a Hb ([…], time 14 day) of 14.7 g/dL and a Ht ([…], time 14 day) of 43%. For the same molecule, the Lym ([…], time 14 day) was 83%, the MCH ([…], time 14 day) was 20.9 pg and the MCHC ([…], time 14 day) was 34%. For the same molecule, the MCV ([…], time 14 day) was 61.3 fL, the Mono ([…], time 14 day) was 5.6% and the Neu ([…], time 14 day) was 10.8%. The PT ([…], time 14 day) was 11.7 s, the Plat ([…], time 14 day) was 128.4 x10_4/uL and the RBC ([…], time 14 day) was 702.2 x10_4/ul. For the same molecule, the Ret ([…], time 14 day) was 3%, the WBC ([…], time 14 day) was 117.7 x10_2/uL and the APTT ([…], time 28 day) was 21 s. The Bas ([…], time 28 day) was 0%, the Eos ([…], time 28 day) was 1% and the Fbg ([…], time 28 day) was 216.5 mg/dL. The Hb ([…], time 28 day) was 14.8 g/dL and the Ht ([…], time 28 day) was 43.9%.
